Results published in patent US20170342046A1, “Fatty Acid Cysteine-Based Conjugates and Their Use in Treating Medical Disorders” (Catabasis Pharmaceuticals, Inc., priority 2016, published 2017).

Key:
[1] = test system: transcription factor Nrf2; assay: Assay to evaluate Nrf2 activity: mRNA of Nrf2 gene expression targets by RT-PCR (HPRT internal control); assay type: cell-based, mouse; conditions: for ΔmRNA/HPRT level for the NQO1 gene / ΔmRNA/HPRT level for the Gclc gene / ΔmRNA/HPRT level for the Gclm gene / ΔmRNA/HPRT level for the Gsta2 gene / ΔmRNA/HPRT level for the HMOX gene / ΔmRNA/HPRT level for the SRXN1 gene / ΔmRNA/HPRT level for the TXNRD1 gene: 24 hours, C2C12
From the text: The transcription factor Nrf2 and its repressor Keap1 regulate a large network of antioxidant genes. The mitochondrial inner membrane is particularly susceptible to damage by reactive oxygen species. Antioxidants can play a large role in preserving the mitochondrial inner membrane and maintaining the integrity of the respiratory chain. Holmstrom et al. (BIOLOGY OPEN (2013) 2, p. 761-770) have also shown that the Nrf2 pathway can potentially control the NADH substrates that are needed for mitochondrial respiration. Activation of the Nrf2 pathway is a way of improving the mitochondrial bioenergetics. The compounds of the invention were evaluated in an assay that was designed to assess the various antioxidant genes that could be regulated by the transcription factor Nrf2.
(§1) Briefly, mouse C2C12 cells were treated with the test compounds when about 70% of the myotubes were differentiated (Day 13). For the assay, cells were treated with the test compounds for 24 hours in low glucose, 0.5% FBS DMEM and 0.1% BSA final concentration. The total RNA was harvested and the relative mRNA expression levels were assessed via RT-PCR with Hypoxanthine phosphoribosyltransferase (“HPRT”) as the internal control. Data were represented as the mean ΔmRNA/HPRT, error bars represent the standard error of the mean (SEM). Significance was determined by student's t-test in comparison to control. The Nrf2 gene expression targets include:
Gclc—Glutamate-cysteine ligase catalytic subunit; Gclm—Glutamate-cysteine ligase modifier subunit;
Gsta2—Glutathione S-transferase A2;
HMOX1—Heme oxygenase 1; NQO1—NAD(P)H dehydrogenase (quinone) 1;
TXNRD1—Thioredoxin reductase 1.
Compound I-1 was evaluated in this assay for any upregulation in the seven Nrf2 gene expression targets listed above.

mouse C2C12 cells = assay: Signs of toxicity seen in the Nrf2 activity assay; assay type: cell-based
Protocol: as §1
The ΔmRNA/HPRT level for NQO1 was selected for this experiment. […] With this covalent conjugate, the two key bioactive components were the N-acetylcysteine amide (NACA) and the omega-3 fatty acid. […] However, the effect was modest and a high concentration of NACA was needed. […] In order to obtain the same level of activity as 12 μM of the fatty acid cysteine conjugate I-1, a much higher concentration of 2,500 μM of NACA was needed. In this assay, the omega-3 fatty acid DHA began to show signs of toxicity at concentration of >25 μM. […] In terms of combination of the individual components, the combination of A (consisting of 312.5 μM of NACA and 3.12 μM of DHA) and the combination of B (consisting of 625 μM of NACA and 6.25 μM of DHA) were used.

C2C12 cells = assay: Metabolic flux analysis: oxygen consumption rate (OCR) in Sea Horse XF96 under H2O2 stress; assay type: cell-based, mouse; conditions: for OCR over time, bioenergetics: treated 4 hours prior to 1 mM H2O2 stress; for OCR corrected for antimycin A, mitochondrial bioenergetics / OCR upon the addition of FCCP: 1 mM H2O2 stress
Protocol: C2C12 cells were cultured in Sea Horse XF96 plates according to the manufacturer's instructions and established protocols (see www.seahorsebio.com/products/instruments/selection.php; Yao et al., PROC. NATL. ACAD. SCI. USA (2009) 106, p. 14670-14675).
On the day of the assay, cells were incubated with the compounds of the invention for either 4 hours or 24 hours. The short 4 hour incubation with the test compounds allowed one to evaluate for improvement of mitochondrial bioenergetics under the “scavengers” conditions (i.e. conditions in which the test compounds could effectively scavenge the various reactive oxygen species). The longer 24 hour incubation with the test compounds allowed one to evaluate for improvement of mitochondrial bioenergetics under the Nrf2 conditions (i.e. conditions in which the test compounds could effectively activate the Nrf2 antioxidant pathway in order to cope with the various reactive oxygen species). For these assays, H2O2 was used as the source of reactive oxygen species. Under the general stress test, cells were then exposed to either 500 μM of H2O2 or 1 mM of H2O2 for 4 hours before the evaluation in the Sea Horse system. Baseline measurements of the oxygen consumption rate (OCR) were taken before sequential injections of the various mitochondrial inhibitors. Readings were taken after addition of the mitochondrial inhibitor before injection of the subsequent inhibitors. The mitochondrial inhibitors that were used included oligomycin (1 μM), FCCP (1 μM) and Antimycin A (1 μM). Oligomycin is a known inhibitor ATP synthase; addition of this reagent essentially stopped the synthesis of ATP. Antimycin A inhibits the electron transport chain in the mitochondria. FCCP essentially uncouples the mitochondria and allows one to measure the maximum respiration. Measurements of the OCR following the addition of FCCP allows one to assess the mitochondrial content. An improvement in the OCR following the addition of FCCP is a reflection of the improvement in bioenergetics, when the proper control groups were put in place. The OCR were automatically calculated and recorded by the Sea Horse XF96 software. Ten measurements were taken at each of the indicated time points. Statistical significance in different treatment groups were determined by an ANOVA, followed by a Newman-Keuls post hoc analysis. Compounds I-1, I-3 and 1-5 were evaluated for mitochondrial bioenergetics under various conditions.

[2] = test system: transcription factor Nrf2; assay: Assay to evaluate Nrf2 activity: mRNA of Nrf2 gene expression targets by RT-PCR (HPRT internal control); assay type: cell-based, mouse; conditions: synergy experiment
[3] = test system: human epithelial cells from CF patients with homozygous ΔF508 mutation; conditions: 250 μM; cited from earlier work

In the case of `CC/C=C\C/C=C\C/C=C\C/C=C\C/C=C\C/C=C\CCC(=O)O` [DHA, all-cis-4,7,10,13,16,19-docosahexaenoic acid, reference compound], the “mRNA level of the NQO1 gene” value ([1]; tested at up to 12 μM, FIG. 6) is reported as “did not observe any upregulation” and the “concentration at which signs of toxicity began to show” value (mouse C2C12 cells) is reported as greater than 25 µM.

With `CC/C=C\C/C=C\C/C=C\C/C=C\C/C=C\C/C=C\CCC(=O)N[C@@H](CSSC(C)(C)CNC(=O)c1cccnc1)C(N)=O` [I-1, N-(2-(((R)-3-amino-2-((4Z,7Z,10Z,13Z,16Z,19Z)-docosa-4,7,10,13,16,19-hexaenamido)-3-oxopropyl)disulfanyl)-2-methylpropyl)nicotinamide] the “OCR over time, bioenergetics (FIG. 2A)” value (C2C12 cells; 1 μM and 10 μM, treated 24 hours prior to 500 μM H2O2 stress) was “significant improvement in bioenergetics, and the effect was dose-dependent”, the “OCR upon the addition of FCCP (FIG. 1A)” value (C2C12 cells; 1 μM compound, treated 4 hours, then 500 μM H2O2 stress) was “significant restoration of the OCR upon the addition of FCCP, essentially to the same level observed with the normal control group and the positive control groups” and the “OCR corrected for antimycin A, mitochondrial bioenergetics (FIG. 1B)” value (C2C12 cells; 1 μM or 10 μM, 4 hours, 500 μM H2O2 stress) was “restored mitochondrial bioenergetics to about the same level observed with normal cells”. The “OCR corrected for antimycin A, bioenergetics (FIG. 2B)” value (C2C12 cells; 1 μM, 24 hours, 500 μM H2O2 stress) was “restored the bioenergetics to the same level observed with the normal control group”, the “OCR upon the addition of FCCP (FIG. 1A)” value (C2C12 cells; 10 μM compound, treated 4 hours, then 500 μM H2O2 stress) was “significant restoration of the OCR upon the addition of FCCP, essentially to the same level observed with the normal control group and the positive control groups” and the “OCR over time compared with control group and the two positive control groups (FIG. 2A)” value (C2C12 cells; 10 μM, 24 hours, 500 μM H2O2 stress) was “considerably higher”. For the same compound, the “increase in the OCR compared with the two positive control groups (catalase or NAC) (FIG. 2B)” value (C2C12 cells; 10 μM, 24 hours, 500 μM H2O2 stress, corrected for antimycin A) was roughly 4 fold, the “ΔmRNA/HPRT level for the NQO1 gene” value ([1]; 6.25 μM) was “an increase in the expression of mRNA” and the “ΔmRNA/HPRT level for the Gclc gene” value ([1]; 12.5 μM) was “significant increase in the expression of mRNA”. For the same compound, the “ΔmRNA/HPRT level for the Gclm gene” value ([1]; 12.5 μM) was “significant increase in the expression of mRNA”, the “ΔmRNA/HPRT level for the Gsta2 gene” value ([1]; 12.5 μM) was “significant increase in the expression of mRNA” and the “ΔmRNA/HPRT level for the HMOX gene” value ([1]; 12.5 μM) was “significant increase in the expression of mRNA”. For the same compound, the “ΔmRNA/HPRT level for the NQO1 gene” value ([1]; 12.5 μM) was “two-fold increase”, the “ΔmRNA/HPRT level for the SRXN1 gene” value ([1]; 12.5 μM) was “significant increase in the expression of mRNA” and the “ΔmRNA/HPRT level for the TXNRD1 gene” value ([1]; 12.5 μM) was “significant increase in the expression of mRNA”. The “ΔmRNA/HPRT level for the NQO1 gene” value ([1]; 1.56 to 3.12 μM) was “No significant increase”, the “ΔmRNA/HPRT level for the Gclc gene” value ([1]; 1.56 to 6.25 μM) was “No significant increase” and the “ΔmRNA/HPRT level for the Gclm gene” value ([1]; 1.56 to 6.25 μM) was “No significant increase”. The “ΔmRNA/HPRT level for the Gsta2 gene” value ([1]; 1.56 to 6.25 μM) was “No significant increase”, the “ΔmRNA/HPRT level for the HMOX gene” value ([1]; 1.56 to 6.25 μM) was “No significant increase” and the “ΔmRNA/HPRT level for the SRXN1 gene” value ([1]; 1.56 to 6.25 μM) was “No significant increase”. For the same compound, the “ΔmRNA/HPRT level for the TXNRD1 gene” value ([1]; 1.56 to 6.25 μM) was “No significant increase”, the “Nrf2 pathway activation compared with individual components or their combination” value ([1]; NQO1 mRNA, FIG. 6) was “able to increase the Nrf2 pathway synergistically” and the “concentration at which maximal response of NQO1 mRNA was observed” value ([1]; synergy experiment, FIG. 6) was 12 µM. For the same compound, the “expression of mRNA of NQO1, dose response (FIG. 6)” value [2] was “dose-dependent increase in the expression of mRNA of NQO1”.

In the case of `CC/C=C\C/C=C\C/C=C\C/C=C\C/C=C\C/C=C\CCC(=O)N[C@@H](CSSC(C)(C)CNC(=O)c1cccnc1)C(=O)O` [I-3, N-((4Z,7Z,10Z,13Z,16Z,19Z)-docosa-4,7,10,13,16,19-hexaenoyl)-S-((2-methyl-1-(nicotinamido)propan-2-yl)thio)-L-cysteine], the “OCR over time, bioenergetics” value (C2C12 cells; 1 μM and 10 μM) is reported as “dose-dependent increase in bioenergetics” and the “OCR corrected for antimycin A, mitochondrial bioenergetics” value (C2C12 cells; 10 μM, 4 hours) is reported as “significant improvement in mitochondrial bioenergetics, essentially comparable to the positive control NAC”.

With `CC/C=C\C/C=C\C/C=C\C/C=C\C/C=C\C/C=C\CCC(=O)N[C@@H](CSSC(C)(C)CNC(=O)CC(O)C[N+](C)(C)C)C(N)=O` (stereo partly drawn) [I-5, 4-((2-(((R)-3-amino-2-((4Z,7Z,10Z,13Z,16Z,19Z)-docosa-4,7,10,13,16,19-hexaenamido)-3-oxopropyl)disulfanyl)-2-methylpropyl)amino)-2-hydroxy-N,N,N-trimethyl-4-oxobutan-1-aminium] the “OCR over time, bioenergetics” value (C2C12 cells; 1 μM and 10 μM) was “dose-dependent increase in bioenergetics” and the “OCR corrected for antimycin A, mitochondrial bioenergetics” value (C2C12 cells; 10 μM, 4 hours) was “significant improvement in mitochondrial bioenergetics, essentially comparable to the two positive control arms, catalase or NAC”.

In the case of `CC(=O)N[C@@H](CS)C(=O)O` [NAC, N-acetyl cysteine, reference compound], the “OCR upon the addition of FCCP (FIG. 1A)” value (C2C12 cells; 5 mM NAC positive control, 4 hours, 500 μM H2O2 stress) is reported as “significant restoration of the OCR upon the addition of FCCP” and the “OCR upon the addition of FCCP” value (C2C12 cells; 5 mM NAC positive control, 4 hours) is reported as “increase in the OCR upon the addition of FCCP; almost to the same level observed with the normal control groups”.

For `NCCSSCCN` [cystamine], the “CFTR at the plasma membrane” value [3] is listed as “restoration of the CFTR to the plasma membrane” and the autophagy [3] is listed as “up-regulation of autophagy”.

With catalase [reference compound] the “OCR upon the addition of FCCP (FIG. 1A)” value (C2C12 cells; 5K U/mL catalase positive control, 4 hours, 500 μM H2O2 stress) was “significant restoration of the OCR upon the addition of FCCP” and the “OCR upon the addition of FCCP” value (C2C12 cells; 5K U/mL catalase positive control, 4 hours) was “increase in the OCR upon the addition of FCCP; almost to the same level observed with the normal control groups”.
